Source: patent US20130123287A1, “CONTROL AGENT FOR SOFT ROT AND CONTROL METHOD FOR THE SAME” (ISHIHARA SANGYO KAISHA, LTD., priority 2010, published 2013)

Tested on: bacteria causing the soft rot (Erwinia carotovora)
Test: Inhibition test of growth of bacteria causing soft rot, Reference Test Example 6
Assay type: cell-based
Details: for formed colonies (growth state), grade: PSA medium, 27 degrees Celsius, 3 days
From the text: An inhibition test of the growth of bacteria causing the soft rot was done, when a control agent was directly applied to the bacteria causing the soft rot. A given volume of each pesticide of fludioxonil (Seibia FL [trade name] manufactured by Syngenta Japan K.K.), iminoctadine albesilate salt (Bellkute WP [trade name], manufactured by Nippon Soda Co., Ltd.), iprodione (Rovral WP [trade name] manufactured by Bayer Crop Science Co., Ltd.), and streptomycin (Mycin Wettable powder [trade name] manufactured by Hokko Chemical Industry Co., Ltd.) was added together with a suspension of the bacteria causing the soft rot (Erwinia carotovora) to a preliminarily dissolved PSA culture medium (55 degrees Celsius) for subsequent thorough agitation, which was then spread on a plate for culturing at 27 degrees Celsius for 3 days, to examine the growth state. Subsequently, the formed colonies were examined according to the following three grades. • +: at the same level as the level of non-treated lot.
Plus or minus: apparently less than the colonies of the non-treated lot. • −: almost no colonies observed.

Question: Which results are given for `[H]/N=C(/N)N[C@H]1[C@H](O)[C@@H](O)[C@H](O[C@@H]2O[C@@H](C)[C@](O)(C=O)[C@H]2O[C@@H]2O[C@@H](CO)[C@H](O)[C@@H](O)[C@@H]2NC)[C@@H](N/C(N)=N\[H])[C@@H]1O` [Streptomycin]?
Answer: formed colonies (growth state), grade (1 ppm active ingredient): +, +; formed colonies (growth state), grade (10 ppm active ingredient): −, ±; direct antibacterial activity against Erwinia carotovora (in words) (active ingredient concentration of 10 ppm): exerted a direct antibacterial activity
